Assay results published in a melting point compilation (Tetko et al.; mined from patent text by program, amines drawn as free bases though some values may be those of a salt).

First: NC(=O)Cc1ccc2c(c1)CCc1ccccc1C2=O
Second: [N-]=[N+]=NCc1n[nH]nc1-c1ccc(Cl)cc1C(=O)c1ccccc1
The melting point of the first is higher: 174 °C for the first, 128 to 131 °C for the second.

First: CCOCCn1c(N2CCN(CC)CC2)nc2ccccc21
Second: O=c1n(CCCCN2CCN(c3cccc(Cl)c3)CC2)nc2ccccn12
The melting point of the first is higher: 134 to 136 °C for the first, 122 to 123 °C for the second.

First: Cc1nnc(C=Cc2ccccc2OCC(O)CNC(C)(C)C)s1 (configuration not stated)
Second: CC(C)(O)c1cc(OCc2ccccc2)cc(C(C)(C)O)c1
The melting point of the first is lower: 110 to 112 °C for the first, 146 to 147 °C for the second.

First: CC(C)(C)CN(CC(O)C(Cc1ccccc1)NC(=O)C(CC(N)=O)NC(=O)c1ccc2ccccc2n1)C(=O)NC(C)(C)C (configuration not stated)
Second: CC(C)(C)OC(=O)CNc1nc(NCc2ccc(NC(=O)c3ccc(F)cc3)cc2)c2ccccc2n1
The melting point of the first is higher: 115 to 117 °C for the first, 96 °C for the second.

Compared with `Cc1ccc(C=Cc2ccc(N(c3ccccc3)c3ccc4c5c(cccc35)CC4)cc2)cc1`, `COc1ccc(C2=Cc3ccc(OCc4ccccc4)cc3OC2O)cc1` (configuration not stated) is lower in melting point: 148 to 149 °C for the first, 138 to 139 °C for the second.

Compared with `CSc1nsc(NC(=O)C(C)(C)C)c1C#N`, `COCOc1cc(F)ccc1-c1cc(-c2cccc(NC(=O)CCN(C)C(=O)OC(C)(C)C)c2)c(C#N)c(NC(=O)c2ccco2)n1` is lower in melting point: 177 to 178 °C for the first, 172 to 174 °C for the second.

First: CCCc1ncc(/C=C(\Cc2cccs2)C(=O)O)n1Cc1ccccc1[N+](=O)[O-]
Second: CSc1nn(C)c(=O)n1Cc1cc(-c2ccccc2)ccc1C
The melting point of the first is higher: 223 °C for the first, 95.6 °C for the second.

First: Nc1nc2c(ncn2OC(CO)CCOCP(=O)(O)O)c(=O)[nH]1 (configuration not stated)
Second: O=c1[nH]c(NCCCn2ccnc2)nc2c1ncn2C1CC(O)C(CO)O1 (configuration not stated)
The melting point of the first is lower: 188 to 192 °C for the first, 245 to 247 °C for the second.

Compared with `CCc1cccc(C)c1CNc1cc(C(=O)N(C)C)cn2c(C)nnc12`, `Cc1cccc(Cl)c1N(C)S(=O)(=O)c1nc2scc(C)n2n1` is lower in melting point: 201 °C for the first, 178 to 180 °C for the second.

First: O=C(Nc1ccc(Cl)cn1)c1cc(F)ccc1NCC1CCNCC1
Second: O=C1COC(CNC(=O)c2cccnc2Oc2ccc(F)cc2)CN1 (configuration not stated)
The melting point of the first is higher: 230 to 233 °C for the first, 157 to 159 °C for the second.

First: C=CCOC(=O)c1c(C)nc2c(cnn2C/C=C\CC)c1N
Second: CCOC(=O)C1=C2NCCN2C(C)=C(C(=O)OC(C)C)C1c1cccc([N+](=O)[O-])c1 (configuration not stated)
The melting point of the first is lower: 78 to 81 °C for the first, 136 °C for the second.

First: O=C1C2CC3=C(CN2C(=O)N1c1ccccc1)N(Cc1ccccc1)CN3 (configuration not stated)
Second: N=C(N)Nc1nc2ccccc2n1Cc1ccccc1
The melting point of the first is higher: 227 to 229 °C for the first, 167 °C for the second.

Compared with `COc1ccc(C(=O)O)c(N)c1OC`, `COc1cc2c(cc1OC)CCN(C(=O)N(C)O)CC2` is lower in melting point: 183 to 184 °C for the first, 95 to 96 °C for the second.

Compared with `Oc1cccc(CCc2nc(-c3ccsc3)c(-c3ccsc3)o2)c1`, `CS(=O)(=O)c1ccc(-c2oc(CCCC(=O)O)nc2-c2ccc(F)cc2)cc1` is lower in melting point: 144 to 145 °C for the first, 140 to 141 °C for the second.

First: C=C(N=[N+]=[N-])c1cn(COCCO)c(=O)[nH]c1=O
Second: O=[N+]([O-])c1cc([N+](=O)[O-])c(OCCO)cc1Cl
The melting point of the first is higher: 141 to 142 °C for the first, 98 to 100 °C for the second.

First: COc1cc(Nc2nccc(-c3ccc([N+](=O)[O-])s3)n2)cc(OC)c1OC
Second: COc1ccc(-c2nc(OCC#N)c3cc(OC)ccc3c2[N+](=O)[O-])cc1
The melting point of the first is lower: 182 to 183 °C for the first, 192 to 194 °C for the second.

First: N#Cc1cc2c(Nc3cccc(Cl)c3)ncnc2[nH]1
Second: N#Cc1cc(Cl)c(NC(=O)NC(=O)c2c(F)cccc2F)cc1Cl
The melting point of the first is higher: 284 to 287 °C for the first, 238 to 240 °C for the second.

First: Cc1nc(N2CCC(Cc3ccc(OC(F)F)cc3)C2=O)sc1C(=O)NCc1ccccc1 (configuration not stated)
Second: CCOC(=O)N1CCn2c(nc(-c3ccncn3)cc2=O)C(NCc2ccc(OC)cc2)C1 (racemic)
The melting point of the first is lower: 132 to 133 °C for the first, 217 to 219 °C for the second.

First: CC(=O)OC(c1cn2c(nc3ccccc32)s1)C1(Br)C(=O)N2C(C(=O)OCc3ccc([N+](=O)[O-])cc3)=CS[C@@H]21 (some centres not stated)
Second: CCOC(=O)c1sc2cc(OCc3cccnc3)ccc2c1Sc1ccccc1N(S(C)(=O)=O)S(C)(=O)=O
The melting point of the first is lower: 78 °C for the first, 165 to 167 °C for the second.

Going from `CC(=O)N1C(=O)C=CC1=O` to `Cc1ccc(CCC(=O)O)cc1C`, the melting point rises from 58 °C to 82 °C.

First: O=S(=O)(c1ccccc1)c1cc[nH]c1-c1ccc(Cl)cc1
Second: C[C@@H](Cc1ccc(O)cc1)NS(=O)(=O)c1ccccc1
The melting point of the first is higher: 158 to 159 °C for the first, 92 to 94 °C for the second.

First: COC(=O)[C@H]1C[C@H](C(=O)O)Nc2cccc(Cl)c21 (relative stereo)
Second: COC(=O)/C=C/c1c(O)cccc1OCCCCC(=O)OC
The melting point of the first is higher: 159 to 161 °C for the first, 97 to 98 °C for the second.

First: N#Cc1cnn2c1NCCC2c1cccc(F)c1 (configuration not stated)
Second: Fc1ccc2c(c1)Cc1cc(F)ccc1O2
The melting point of the first is higher: 146 to 148 °C for the first, 117 to 118 °C for the second.

First: Brc1csc2ncnc(NCc3ccccn3)c12
Second: OCc1ccccc1NCc1c(O)ccc2c1CCCO2
The melting point of the first is lower: 127 to 129 °C for the first, 151 to 153 °C for the second.

`CC(C)N(C(N)=O)c1ccc2c(c1)OCO2` and `CC(C)[C@H]1COC(=O)N1C(=O)[C@@H](CC(=O)OCc1ccccc1)Cc1ccccc1` cannot be ordered by melting point: 116 to 119 °C for the first, 118 to 120 °C for the second.

First: COC(=O)c1c(CC#N)ncn1C1OC(COC(C)=O)C(OC(C)=O)C1OC(C)=O (configuration not stated)
Second: CCOC(=O)[C@H]1O[C@@H]1C(=O)N[C@H](COCC(=O)N(C)C)CC(C)C
The melting point of the first is higher: 92 to 93 °C for the first, 64 to 65 °C for the second.

First: O=C(Cn1nc(Br)nc1Br)N1CCC(c2nc(C3=NOC(c4c(F)cccc4F)C3)cs2)CC1 (configuration not stated)
Second: Cc1c(-c2ccc(NC(=O)NC(C)(C)C)cc2)nc2n1CCc1ccccc1C2OC1CCN(C)CC1 (configuration not stated)
The melting point of the first is higher: 185 to 189 °C for the first, 173 °C for the second.

First: CC(C)(CN)c1ccc2nc(-c3ccc(O)cc3)[nH]c2c1
Second: CN(C)CCN(CCN(C)C)c1ccc(-c2nc3ccccc3[nH]2)cc1
The melting point of the first is lower: 178 to 182 °C for the first, 190 to 191 °C for the second.

First: C=CCNC(=O)N1CC(OCc2ccc(F)cc2)C1
Second: O=C(OCc1ccccc1)N1c2ccc(I)cc2CC1CO (configuration not stated)
The melting point of the first is lower: 97 to 99 °C for the first, 110 to 111 °C for the second.

Compared with `Clc1ccc(CSC(Cn2ccnc2)C23CC4CC(CC(C4)C2)C3)cc1` (configuration not stated), `COc1ccc(NC(=O)C23CC4CC(CC(C4)C2)C3)cc1` is higher in melting point: 157 to 160 °C for the first, 181 to 184 °C for the second.

First: CCOc1cc2c(cc1OC)C(c1ccc(C(=O)OC)cc1)=N[C@@H]1CCOC[C@H]21
Second: COc1cc(C(C)C)ccc1C1(NC(=O)C2CC2)C(=O)c2ccccc2C1=O
The melting point of the first is lower: 141 to 143 °C for the first, 145 to 147 °C for the second.

First: O=S1(=O)c2cccc3cccc(c23)N1CCCN1CCN(c2ccccc2O)CC1
Second: CCOC(=O)C1=C(C)NC(C)=C(C(=O)OCCN2CCN(C(c3ccc(C)cc3)c3ccc(C)cc3)CC2)C1c1cccc(C(F)(F)F)c1 (configuration not stated)
The melting point of the first is higher: 128 °C for the first, 74 to 77 °C for the second.

First: O=[N+]([O-])c1ccc2c(c1)Sc1cc(Br)ccc1N2
Second: O=Cc1cc([N+](=O)[O-])ccc1C1SCCCS1
The melting point of the first is higher: over 250 °C for the first, 99 to 101 °C for the second.

Compared with `CCCCCCCNC(=O)Nc1ccc(N(C)C)cc1C(=O)N(CC1CCN(C(c2ccccc2)c2ccccc2)CC1)N(C)C`, `COc1ccc(CN(CCN(C)CCCCCCNC(=C[N+](=O)[O-])NCCCOc2cccc(CN3CCCCC3)c2)c2ccccn2)cc1` is lower in melting point: 178 to 179 °C for the first, 73 °C for the second.

First: Cc1ccc(Nc2nnc(-c3ccc(N4CCOCC4)c([N+](=O)[O-])c3)s2)cc1Cl
Second: CN(c1ccccc1)c1nc(Cl)c([N+](=O)[O-])s1
The melting point of the first is higher: 268 to 269 °C for the first, 136 to 137 °C for the second.

First: Nc1nc(N)nc(-c2ccc(S(=O)c3ccccc3)cc2)n1 (configuration not stated)
Second: COc1ccc(-c2cc(NC(=O)C3(C)Cc4ccccc4C3)n[nH]2)cc1
The melting point of the first is higher: 253 to 255 °C for the first, 171 to 172 °C for the second.

Compared with `CC(C)n1nc(-c2c(-c3ccccc3)nn3ccc(C(=O)NC(C)(C)C)cc23)ccc1=O`, `Cn1cc(C2=C(c3c4n(c5ccccc35)CC(NC(=O)OC(C)(C)C)CC4)C(=O)NC2=O)c2ccccc21` (configuration not stated) is lower in melting point: 200 to 201 °C for the first, 159 to 163 °C for the second.

Compared with `Oc1ccc(Cc2nc(-c3cccs3)c[nH]2)cc1`, `COC(=O)c1ccc(COc2cc(C(C)(C)C)nn2Cc2ccc(C(=O)OC)cc2)cc1` is lower in melting point: 189 to 191 °C for the first, 93 to 94 °C for the second.

Compared with `CCOc1ccc(-c2nc(-c3cc(C=CC(=O)O)c(O)c(C(=O)O)c3)cs2)cc1OCC`, `O=C(NCCO)c1cc2c(Oc3ccc(Cl)cc3)cnc(Cl)c2s1` is lower in melting point: 260 to 261 °C for the first, 129 to 132 °C for the second.

First: CN(c1ccccc1)[C@@H]1C=Cc2ccccc2[C@H]1O
Second: CCCCC(Nc1ccncc1)c1ccccc1 (configuration not stated)
The melting point of the first is higher: 127 to 129 °C for the first, 118 °C for the second.

First: CNC1CCN(c2nc3c(cc2F)c(=O)c(C(=O)O)cn3CCF)C1 (configuration not stated)
Second: CS(=O)(=O)c1ccc(-c2cc(=O)n(CC3CCC3)nc2-c2ccc(F)cc2)cc1
The melting point of the first is higher: 243 to 245 °C for the first, 74 to 76 °C for the second.

First: CCCn1c(=O)c2c(NC)n[nH]c2n(Cc2ccc(Br)cc2)c1=O
Second: CCCNC1=CC(=O)c2c(OC)ccc(OC)c2C1=O
The melting point of the first is higher: 308 to 310 °C for the first, 175 to 176 °C for the second.

First: O=C1CC(c2cccc(-n3ccnc3)c2)=Nc2cc(OCCO)c(-c3ccc(F)cc3)cc2N1
Second: Cn1cc(-c2cc(-c3cnc4ccccc4c3)ccn2)n(-c2ccc(C(C)(C)C#N)cc2)c1=O
The melting point of the first is higher: 225 °C for the first, 180 °C for the second.

First: NS(=O)(=O)CCCOc1ccc2ncnn2n1
Second: COc1ccc([N+](=O)[O-])cc1NC(=O)CCCCC1CCSS1 (configuration not stated)
The melting point of the first is higher: 145 to 147 °C for the first, 117 °C for the second.

First: C#CCN(C(=O)OC)C1CN(C(=O)Nc2ccc(OC(F)(F)F)cc2)N=C1c1ccc(Cl)cc1 (configuration not stated)
Second: CN(C)CCC1CCc2cc(OCc3cc4ccccc4o3)ccc2C1 (single isomer, unassigned; (+))
The melting point of the first is higher: 184 to 185 °C for the first, 75 to 77 °C for the second.

Compared with `O=Cc1cccc(Cl)n1`, `CCc1ccc(NN)c(Cl)c1` is lower in melting point: 136 °C for the first, 55 to 57 °C for the second.

First: C/C(=N\OC(=O)c1ccccn1)[C@H]1CC[C@H]2[C@@H]3CCC4=CC(=O)CC[C@]4(C)[C@H]3CC[C@]12C
Second: COc1cc2c(c(OC(C)=O)c1)C1CCC3(C)C(OC)CCC3C1CC2 (configuration not stated)
The melting point of the first is higher: 172 to 174 °C for the first, 81 to 83 °C for the second.

First: CCCCCCCCCCCCC(=O)Nc1ccn(C2OC(CO)C(O)C2O)c(=O)n1 (configuration not stated)
Second: CCOC(=O)c1[nH]c2cc3[nH]c(C)c(C(=O)OC)c3c(C)c2c1C
The melting point of the first is lower: 143 to 146 °C for the first, 247 to 250 °C for the second.

With `CC(C)(C)OC(=O)N1CCC(O)(CSC2=CC(=O)C(=O)c3ccccc32)CC1` the melting point was 156 to 157 °C.
